How the values were obtained:
[1] = Serum stability test; assay type: in vitro ADME, human; conditions: human, diluted human serum (25%), supernatant after centrifugation; 8 h at 37° C.; read-out: Degradation in human serum
Protocol: Diluted human serum (25%) was centrifuged at 15,000 rpm for 10 min, and the supernatant was collected. A peptide stock solution was diluted into the supernatant to a final concentration of 5 μM and incubated at 37° C. At various time points (0-8 h), 200-μL aliquots were withdrawn and mixed with 50 μL of 15% trichloroacetic acid and 200 μL of acetonitrile. After incubation at 4° C. overnight, the mixture was centrifuged at 15,000 rpm for 10 min in a microcentrifuge, and the supernatant was analyzed by reversed-phase HPLC equipped with an analytical C18 column (Waters). The amount of remaining intact peptide (%, relative that of time zero control) was determined by integrating the area underneath the peptide peak (monitored at 214 nm).

[2] = target: T1, TNFα (Homo sapiens, UniProt P01375); assay: Fluorescence anisotropy (FA) binding of fluorescently labeled bicyclic peptides to TNFα; conditions: labeled at free N-terminal amine with 6-carboxyfluorescein
T1 construct: ybbR tag (13 aa) (N); made in house; host or cells: Escherichia coli
Protocol: FITC-labeled bicyclic peptide (50 or 100 nM) were incubated with varying concentrations of TNFα (0-5 μM) in 30 mM HEPES, pH 7.4, 150 mM NaCl, and 2 mM magnesium acetate for 2 h. The FA values were measured on a Molecular Devices Spectramax M5 spectrofluorimeter, with excitation and emission wavelengths at 485 and 525 nm, respectively. Equilibrium dissociation constants (KD) were determined by plotting the FA values as a function of TNFα concentration and fitting the data to the following equation
(§1) [formula] where Y is the measured anisotropy at a given TNFα concentration x; L is the bicyclic peptide concentration; Qb/Qf is the correction fact for dye-protein interaction; Amax is the maximum anisotropy when all the peptides are bound to TNFα, while Amin is the minimum anisotropy. Competition experiments were performed by incubating 100 nM Asn-Asn-Asn-Lys(FITC)-labeled anticachexin C1 (Table 1), 2 μM of TNFα, and varying concentrations of unlabeled competitor peptide (0-20 μM) in the above buffer for 2 h. The FA values were plotted against the competitor peptide concentration to determine the IC50 values.
To identify residues significant for TNFα binding, each residue of anticachexin C1 (other than D-alanine at position-3, L-lysine at position-4, and L-2,3-diaminopropionic acid (Dap) at position-10) was individually replaced with an alanine (or D-alanine). To facilitate binding analysis by fluorescence anisotropy (FA), a tetrapeptide NNNK (SEQ ID NO: 1) was added to the C-terminus of each bicyclic peptide and the lysine side chain was labeled with fluorescein isothiocyanate (FITC) during solid-phase synthesis (Scheme 1). The three asparagine residues were added to improve the aqueous solubility of the bicyclic peptides. The bicyclic peptide was prepared by first synthesizing the full-length linear sequence on Rink amide resin using standard Fmoc/HBTU chemistry. The side chains of the two internal cyclization residues, L-lysine and Dap, were protected with monomethoxytrityl (Mmt) groups, whereas the C-terminal lysine was protected with an allyloxycarbonyl (Alloc) group. After removal of the N-terminal Fmoc group, a trimesic acid was coupled to the N-terminal amine using HBTU as the coupling agent. Next, the Mmt groups were selectively removed from the Lys and Dap side chains by 2% TFA and the peptide was cyclized by treatment with (benzotriazol-1-yloxy)tripyrrolidinophosphonium hexafluorophosphate (PyBOP). The Alloc group on the C-terminal lysine side chain was removed by treatment with Pd(PPh3)4 and the bicyclic peptide was selectively labeled at the C-terminal lysine by treating the resin with FITC. […] On the other hand, phenylglycine (Phg)-1 and glycine-7 play more minor roles in binding.

[3] = test system: murine TNFα-induced cell death in WEHI-13VAR fibroblasts; assay: MTT assay: protection of WEHI-13VAR fibroblasts against murine TNFα-induced cell death; assay type: cell-based; conditions: murine TNFα with 10 μM peptide; no inhibitor 10 ng/mL
Protocol: WEHI-13VAR fibroblasts were purchased from American Type Culture Collection (ATCC). For maintenance, cells were grown in full medium as RPMI-1640 supplemented with 10% FBS and 1% Abs. For toxicity assay, cells were seeded in a 96-well plate at a density of 5×10^3 cells/well in 100 μL of RPMI-1640/1% Abs supplemented with 10% or 5% FBS and allowed to grow overnight. Varying concentrations of recombinant human TNFα (0-250 ng/mL) or commercial mouse TNFα were (0-100 pg/mL) were incubated with 10 μM peptide and actinomycin D (1 μg/mL) in 100 μL of corresponding growth medium for 1 h at 37° C. Next, the medium in the 96-well plate was removed and replaced with the above fresh mixture and the cells were incubated overnight. Next day, 10 μL of the 3-(4, 5-dimethylthiazolyl-2)-2, 5-diphenyltetrazolium bromide (MTT, final concentration 0.5 mg/ml) was added to each well and incubated at 37° C. for 3 h, following by the addition of 100 μL of the MTT solubilization solution. The plate was kept in the incubator overnight to let the formazan crystals to completely dissolve, and the absorbance at 570 nm was measured on a TECAN plate reader. The LD50 was obtained as plotting the viability as a function of the TNFα concentration.
TNFα inhibitor C1-74-2 was tested for its inhibitory activity against murine TNFα, a necessary step before testing C1-74-2 in a mouse model of inflammatory bowel disease.

[4] = target: T1, TNFα; assay: FA-based competition with FITC-labeled C1 for binding to TNFα; conditions: 2 μM TNFα, 100 nM C1-NNNK(FITC), 0-15 μM competitor
Protocol: FIG. 6A is a graph showing the competition for binding to TNFα (2 μM) between C1-74-2 (0-15 μM) and C1-NNNK(FITC) (100 nM) as monitored by FA. FIG. 6B is a graph showing binding of infliximab-HRP conjugate to immobilized TNFα in the absence and presence of C1-74-2 (0, 2, or 6 μM).
as §1
Target sequence in this assay (P01375 77-233 limits assumed): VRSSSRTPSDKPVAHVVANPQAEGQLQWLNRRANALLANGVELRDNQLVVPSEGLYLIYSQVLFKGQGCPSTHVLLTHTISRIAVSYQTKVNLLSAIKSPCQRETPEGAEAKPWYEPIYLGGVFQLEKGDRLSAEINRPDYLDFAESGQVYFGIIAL

[5] = target: T2, TNFα-TNFR1 interaction (Homo sapiens, UniProt P01375); assay: ELISA inhibition of TNFα-TNFR1 interaction (immobilized biotinylated TNFα, TNFR1-HRP); assay type: binding
T2 construct: made in house; host or cells: Escherichia coli (TNFα)

In the case of `CC(=O)[C@@H]1CCCN(C(=O)[C@@H](Cc2c[nH]cn2)NC(=O)C(N)C(C)C)C1` (stereo partly drawn) [Compound C1-74-2], the metabolised at 8 h, 5 μM [1] is reported as roughly 15%, the Kd [2] is reported as 40 ± 7 nM and the “LD50 value of TNFα” value [3] is reported as 31 ng/mL. The “Competition with FITC-labeled C1 for binding to TNFα” value [4] was “competed with FITC-labeled C1 for binding to TNFα”, the IC50 ([5]; inhibition of TNFα-TNFR1 interaction, unlabeled peptides) was 12 ± 2 nM and the “Improvement of IC50 over C1-74 (fold)” value ([5]; relative to C1-74) was roughly 6 fold.

Reference: US10913773B2, “Bicyclic peptidyl inhibitor of tumor necrosis factor-alpha” (Ohio State Innovation Foundation, priority 2016, dated 2021)
